Reference: patent US11629359B2, “Plasma membrane intrinsic aquaporin for absorbing and transporting neonicotinoid insecticides, and coding gene and use therefor” (JIANGSU ACADEMY OF ARGRICULTURAL SCIENCES, priority 2020, dated 2023)

Tests used:
Chinese cabbage plants = details: 2 mg/L in Hoagland nutrient solution, mercuric chloride and glycerol of different concentrations, 48 h
BraPIP2;1 = experiment: Response of BraPIP2;1 gene expression to thiamethoxam (quantitative RT-PCR); format: in vivo, Chinese cabbage; details: 10 mg/L thiamethoxam, 6 hours and 24 hours, p<0.001
Procedure: Seedlings of Chinese cabbage with the same growth condition were put in a Hoagland's nutrient solution containing 10 mg/L thiamethoxam (the Hoagland's nutrient solution was purchased from Beijing Coolaber Technology Co., Ltd.), and treated in the Hoagland's nutrient solution for 6 and 24 hours (treatment group).
At the same time, a Hoagland's nutrient solution without thiamethoxam was used as the control group.
Treated root and aboveground tissue RNA of two groups was extracted respectively, the 1st strand cDNA was obtained by reverse transcription as a template, specific expression primers were designed based on the cDNA sequence of BraPIP2;1, the Chinese cabbage Tublin was used as an internal reference, and the expression of the gene transcription level was detected by quantitative RT-PCR.
The quantification instrument is 7500 Real Time PCR System (Applied Biosystem), and a qPCRT system was configured according to the instructions of a kit 2×TSINGKE Master qPCR Mix (Tsingke Biotechnology Co., Ltd.). The PCR program is: pre-denaturation at 95° C. for 10 min, at 95° C. for 15s, and at 60° C. for 20 s, for 40 cycles.

[1] = tested on: Saccharomyces cerevisiae INVSc1 (pYES2-BraPIP2;1); experiment: Growth of recombinant yeast strains under thiamethoxam stress; format: cell-based; details: thiamethoxam 10-1600 mg/L, stress at 30° C. for 72 h
Text: (§1) The BraPIP2;1 gene cloned in Example 1 was constructed into the Saccharomyces cerevisiae overexpression vector pYES2 (purchased from Clotech) referring to (He Lin, Jiang Lili, Wang Yucheng, Analysis of the stress tolerance of Tamarix thioredoxin peroxidase (ThPrx1) gene transformed into yeast, Journal of Northeast Forestry University, 2011, Vol. 39. No. 4, 101-104), and the constructed recombinant plasmid was named pYES2-BraPIP2;1. The pYES2-BraPIP2;1 and an empty vector pYES2 were transformed into Saccharomyces cerevisiae INVSc1 by lithium acetate precipitation. The recombinant yeasts were named INVSc1 (pYES2-BraPIP2;1) and INVSc1 (pYES2), respectively.
(§2) Induction of recombinant strains: Single colonies of the control yeast INvsc1 (pYES2) and the recombinant yeast INvsc1 (pYES2-BraPIP2;1) were picked, inoculated in an SC-U liquid medium (with glucose of a final concentration of 2%) respectively, and incubated at 30° C. for 24 h on a shaker. The OD600 value is measured, and the amount of bacterial solution required is calculated such that the OD600 of bacteria in 10 ml of induction medium (SC-U+2% galactose) is 0.4. Induce expression was carried out at 30° C. for 24 h. The OD600 value was measured again, and the amount of bacterial solution required was calculated. […]

[2] = tested on: Saccharomyces cerevisiae INVSc1 (pYES2-BraPIP2;1); experiment: Thiamethoxam content of recombinant yeast strain; format: cell-based; details: 30° C., 6 h
Text: as §1, §2

[3] = tested on: Saccharomyces cerevisiae INVSc1 (pYES2); experiment: Thiamethoxam content of control yeast strain; format: cell-based; details: 30° C., 6 h
Text: as §1, §2

[4] = tested on: BraPIP2;1 overexpression Arabidopsis thaliana; experiment: Main root length of BraPIP2;1 transgenic Arabidopsis thaliana under thiamethoxam; format: in vivo; details: 1/2MS media with 10 and 50 mg/L thiamethoxam, 20 days
Text: (§3) The BraPIP2;1 gene cloned in Example 1 was constructed into the plant binary overexpression vector pCAMBIA2301 (purchased from Clotech). By the Agrobacterium tumefaciens-mediated method (Valvekens, D., van Montagu, M., and Lijsebettens, M. V. (1988). Agrobacterium tumefaciens-mediated transformation of Arabidopsis thaliana root explants by using kanamycin selection. Proc. Natl. Acad. Sci. USA 85, 5536-5540.), the inflorescence of wild-type Arabidopsis thaliana Col-0 (purchased from ATCC, USA) was infected with the constructed overexpression vector. Through screening (resistance pure line seedlings were screened on a 1/2MS plate containing 50 μg/mL kanamycin), BraPIP2;1 overexpression Arabidopsis thaliana pure line materials BraPIP2;1#3 and BraPIP2;1#5 were identified and obtained.
The pure line seeds of the BraPIP2;1#3 and BraPIP2;1#5 obtained in the previous transgenic experiment and a wild-type Col-0 material (WT) were germinated on a 1/2MS medium respectively, and then transferred to 1/2MS media (Qingdao Hopebio Co., Ltd., Item No. HB8469-12, PH=5.6) containing 10 and 50 mg/L thiamethoxam respectively. After 20 days, the growth of the seedlings was observed and the main root length was measured.

[5] = tested on: BraPIP2;1 overexpression Arabidopsis thaliana; experiment: Thiamethoxam content of BraPIP2;1 transgenic Arabidopsis thaliana plants; format: in vivo; details: soil containing 10 mg/L thiamethoxam, 20 days
Text: as §3
In addition, germinated seedlings of the same size were transplanted into soil containing 10 mg/L thiamethoxam, and after 20 days of culture, the root and aboveground samples of the transgenic Arabidopsis thaliana and the control were harvested respectively, washed with deionized water, and weighed.

SMILES	content of the compound in the plants after water channel inhibitors were added (Chinese cabbage plants)	expression abundance of BraPIP2;1 in the roots and aboveground parts compared with the control (BraPIP2;1)	growth of transgenic strain (pYES2-BraPIP2;1) versus wild strain (pYES2) with thiamethoxam [1]	thiamethoxam content of the recombinant strain ([2]; 10 mg/L thiamethoxam) [ng/OD]	thiamethoxam content of the recombinant strain ([2]; 100 mg/L thiamethoxam) [ng/OD]	thiamethoxam content of the control strain ([3]; 10 mg/L thiamethoxam) [ng/OD]	thiamethoxam content of the control strain ([3]; 100 mg/L thiamethoxam) [ng/OD]	main root length of the transgenic strain versus wild type [4]	thiamethoxam content of the roots and aboveground parts of the transgenic plant versus wild plant [5]
CN1CCCC1c1cccnc1 (stereo not drawn) [nicotine]	did not change significantly								
CN1COCN(Cc2cnc(Cl)s2)/C1=N\[N+](=O)[O-] [thiamethoxam]		significantly increased	grows significantly weaker than the wild strain	0.0071	0.028	0.0038	0.011	shorter than that of the wild type	higher than that of the wild plant
